Experimental data taken from patent US20180016554A1, “HUMAN SERUM ALBUMIN-CONTAINING CULTURE MEDIUM FOR GROWTH OF NEURAL STEM CELLS” (AJINOMOTO CO., INC., priority 2015, published 2018).
“Also recorded” adds a separate entry of the source.

System: neurosphere (neural stem cells and/or neural progenitor cells induced from human pluripotent stem cells)
Experiment: Functional evaluation of fatty acid (oleic acid) added to human serum albumin-added medium: neurosphere morphology
Type: cell-based
Conditions: 14 days' culturing
Procedure: Similar to Example 1, 2.1 mg/mL human serum albumin-added medium was produced. A medium was produced by adding oleic acid (Tokyo Chemical Industry Co., Ltd.) at a final concentration of 20 μM or 60 μM to this medium, and a medium without addition of oleic acid was produced, and neurospheres were cultured in these media. […] The medium was exchanged every 7 days and, after 14 days' culturing, the morphology of the neurosphere formed was observed under a microscope.

CCCCCCCC/C=C\CCCCCCCC(=O)O [oleic acid]
morphology of the neurosphere formed (20 μM oleic acid in 2.1 mg/mL human serum albumin-added medium): showed a good neurosphere form | morphology of the neurosphere formed (60 μM oleic acid in 2.1 mg/mL human serum albumin-added medium): show a black sphere with an irregular shape; also recorded: Many black sphere images with an irregular shape were confirmed
